Apoptosis data for 3 molecules are collected here from the Kinase Knowledgebase extract (Sharma et al. 2016).

Structures are written as SMILES.

In this experiment the target is MAPK14 (human) (UniProt Q16539). The experiment is described as follows: Apoptotic Activity (Eosinophils). The note with it: concentration not given here.
MAPK14 (human), sequence (Q16539 whole entry, looked up): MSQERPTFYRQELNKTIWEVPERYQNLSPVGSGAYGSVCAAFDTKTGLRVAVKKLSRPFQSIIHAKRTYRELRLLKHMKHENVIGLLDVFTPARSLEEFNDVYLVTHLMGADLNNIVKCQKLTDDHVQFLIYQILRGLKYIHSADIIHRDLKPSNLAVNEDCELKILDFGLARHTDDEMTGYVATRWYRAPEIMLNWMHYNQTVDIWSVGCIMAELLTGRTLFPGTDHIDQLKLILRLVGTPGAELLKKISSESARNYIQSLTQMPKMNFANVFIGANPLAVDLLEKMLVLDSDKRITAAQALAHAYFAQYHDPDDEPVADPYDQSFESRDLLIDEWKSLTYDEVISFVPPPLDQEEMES
`COc1ccc2c(c1)c(CC(=O)O)c(C)n2C(=O)c1ccc(Cl)cc1`: the apoptosis is 27.7%.
As for `CC(C(=O)O)c1ccc(-c2ccccc2)c(F)c1` (stereo not drawn), the figure is 32.5%; as for `CS(=O)(=O)Nc1cc2c(cc1-c1ccc(F)c(S)c1F)C(=O)CC2`, 28.9%.
